Assay results reported in BigSolDB 2.1.

Conditions: in water

O=C(O)COCC(=O)O
Conditions | solubility (mole fraction)
278.25 K | 0.0365
284.15 K | 0.0469
288.75 K | 0.0686
293.75 K | 0.0748
296.65 K | 0.0823
301.25 K | 0.104
310.65 K | 0.128
313.15 K | 0.139
321.15 K | 0.161
323.15 K | 0.167
327.65 K | 0.188
332.65 K | 0.205
338.15 K | 0.22
343.15 K | 0.239
348.15 K | 0.254
353.05 K | 0.268
357.15 K | 0.284
361.35 K | 0.295

O=C(O)CCCCCCCC(=O)O
Conditions | solubility (mole fraction)
280.15 K | 5.94e-05
285.85 K | 8.13e-05
291.85 K | 0.000117
298.15 K | 0.000171
307.85 K | 0.000287
316.15 K | 0.000336
325.75 K | 0.000481
330.15 K | 0.0007
334.65 K | 0.000931
338.15 K | 0.00128
344.15 K | 0.00132
347.65 K | 0.00153
353.05 K | 0.00191
357.65 K | 0.00173

O=C(O)CCCCCCC(=O)O
Conditions | solubility (mole fraction)
280.15 K | 9.55e-05
285.85 K | 0.000128
291.85 K | 0.000177
298.15 K | 0.00025
305.65 K | 0.000341
307.65 K | 0.000369
313.15 K | 0.00042
317.65 K | 0.000485
323.35 K | 0.000579
325.85 K | 0.00064
334.65 K | 0.00101
337.15 K | 0.00117
343.25 K | 0.00149
349.65 K | 0.00212

CC(=O)CCC(=O)O
Conditions | solubility (mole fraction)
280.15 K | 0.18
283.15 K | 0.214
287.65 K | 0.278
293.95 K | 0.374
298.15 K | 0.448
303.25 K | 0.519
